Calls of active or inactive are those of the source. How the calls were made is not given here.
Tested on: CCRIS mutagenicity, Ames/micronucleus/aberration tests
Experiment: CCRIS mutagenicity studies
[1] = Test System: AMES SALMONELLA TYPHIMURIUM, Strain/Indicator: TA100, Metabolic Activation: NONE, Method: STANDARD PLATE
[2] = Test System: AMES SALMONELLA TYPHIMURIUM, Strain/Indicator: TA1537, Metabolic Activation: NONE, Method: STANDARD PLATE

Compound: C/C=C/c1ccc(O)c(OC)c1
- mutagenic call (End Point: E. coli, Test System: WP2uvrA/pKM101, Metabolic Activation: None, Method: Preincubation): inactive; negative
- mutagenic call (End Point: E. coli, Test System: WP2uvrA/pKM101, Metabolic Activation: Rat, Liver, S-9, Aroclor 1254 (10%), Method: Preincubation): inactive; negative
- mutagenic call (End Point: In vitro chromosomal aberrations, Test System: Chinese hamster ovary (CHO) cells, Metabolic Activation: None): inactive; negative
- mutagenic call (End Point: In vitro chromosomal aberrations, Test System: Chinese hamster ovary (CHO) cells, Metabolic Activation: Rat, Liver, S-9, Aroclor 1254): inactive; negative
- mutagenic call (End Point: In vivo micronucleus, Test System: Micronucleated normochromatic erythrocytes in perripheral blood, Species: Mouse, Strain/Sex: B6C3F1 / Female, Route: Oral): active; positive
- mutagenic call (End Point: In vivo micronucleus, Test System: Micronucleated normochromatic erythrocytes in perripheral blood, Species: Mouse, Strain/Sex: B6C3F1 / Male, Route: Oral): inactive; negative
- mutagenic call (Test System: AMES SALMONELLA TYPHIMURIUM, Strain/Indicator: TA97, Metabolic Activation: NONE, Method: PREINCUBATION): inactive; negative
- mutagenic call (Test System: AMES SALMONELLA TYPHIMURIUM, Strain/Indicator: TA97, Metabolic Activation: RAT, LIVER, S-9, AROCLOR 1254, Method: PREINCUBATION): inactive; negative
- mutagenic call (Test System: AMES SALMONELLA TYPHIMURIUM, Strain/Indicator: TA98, Metabolic Activation: HAMSTER, LIVER, S-9, AROCLOR 1254, Method: STANDARD PLATE): inactive; negative
- mutagenic call (Test System: AMES SALMONELLA TYPHIMURIUM, Strain/Indicator: TA98, Metabolic Activation: NONE, Method: STANDARD PLATE): inactive; negative
- mutagenic call (Test System: AMES SALMONELLA TYPHIMURIUM, Strain/Indicator: TA98, Metabolic Activation: RAT, LIVER, S-9, AROCLOR 1254, Method: STANDARD PLATE): inactive; negative
- mutagenic call (Test System: AMES SALMONELLA TYPHIMURIUM, Strain/Indicator: TA100, Metabolic Activation: HAMSTER, LIVER, S-9, AROCLOR 1254, Method: STANDARD PLATE): inactive; negative
- mutagenic call [1]: inactive; negative
- mutagenic call (Test System: AMES SALMONELLA TYPHIMURIUM, Strain/Indicator: TA100, Metabolic Activation: RAT, LIVER, S-9, AROCLOR 1254, Method: STANDARD PLATE): inactive; negative
- mutagenic call (Test System: AMES SALMONELLA TYPHIMURIUM, Strain/Indicator: TA102, Metabolic Activation: NONE, Method: PREINCUBATION): inactive; negative
- mutagenic call (Test System: AMES SALMONELLA TYPHIMURIUM, Strain/Indicator: TA102, Metabolic Activation: RAT, LIVER, S-9, AROCLOR 1254, Method: PREINCUBATION): inactive; negative
- mutagenic call (Test System: AMES SALMONELLA TYPHIMURIUM, Strain/Indicator: TA1535, Metabolic Activation: HAMSTER, LIVER, S-9, AROCLOR 1254, Method: STANDARD PLATE): inactive; negative
- mutagenic call (Test System: AMES SALMONELLA TYPHIMURIUM, Strain/Indicator: TA1535, Metabolic Activation: NONE, Method: STANDARD PLATE): inactive; negative
- mutagenic call (Test System: AMES SALMONELLA TYPHIMURIUM, Strain/Indicator: TA1535, Metabolic Activation: RAT, LIVER, S-9, AROCLOR 1254, Method: STANDARD PLATE): inactive; negative
- mutagenic call (Test System: AMES SALMONELLA TYPHIMURIUM, Strain/Indicator: TA1537, Metabolic Activation: HAMSTER, LIVER, S-9, AROCLOR 1254, Method: STANDARD PLATE): inactive; negative
- mutagenic call [2]: inactive; negative
- mutagenic call (Test System: AMES SALMONELLA TYPHIMURIUM, Strain/Indicator: TA1537, Metabolic Activation: RAT, LIVER, S-9, AROCLOR 1254, Method: STANDARD PLATE): inactive; negative
- mutagenic call (Test System: AMES SALMONELLA TYPHIMURIUM, Strain/Indicator: TA1538, Metabolic Activation: HAMSTER, LIVER, S-9, AROCLOR 1254, Method: STANDARD PLATE): inactive; negative
- mutagenic call (Test System: AMES SALMONELLA TYPHIMURIUM, Strain/Indicator: TA1538, Metabolic Activation: NONE, Method: STANDARD PLATE): inactive; negative
- mutagenic call (Test System: AMES SALMONELLA TYPHIMURIUM, Strain/Indicator: TA1538, Metabolic Activation: RAT, LIVER, S-9, AROCLOR 1254, Method: STANDARD PLATE): inactive; negative
- mutagenic call (Test System: MOUSE LYMPHOMA, Strain/Indicator: L5178Y (TK+/TK-), Metabolic Activation: NONE, Method: SUSPENSION/PLATE): active; positive. reevaluation of results: positive
- mutagenic call (Test System: MOUSE LYMPHOMA, Strain/Indicator: L5178Y (TK+/TK-), Metabolic Activation: RAT, LIVER, S-9, AROCLOR 1254, Method: SUSPENSION/PLATE): inactive; negative. reevaluation of results: negative

Compound: COP1(=S)OCc2ccccc2O1 (stereo not given)
- mutagenic call [1]: active; positive
- mutagenic call (Test System: AMES SALMONELLA TYPHIMURIUM, Strain/Indicator: TA100, Metabolic Activation: S-9 MIX, Method: STANDARD PLATE): active; positive

Compound: CN(C)CCNC(=O)c1cccc2c1Oc1ccccc1O2
- mutagenic call [2]: active; positive
